Results filed as inconclusive are left out. Calls of active or inactive are those of the source.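 How the source made its calls: active means fitted curve reaches 40% activation at or below the top valid dose, and every replicate test is called active; inconclusive means replicate tests disagree, some active and some inactive; inactive means all replicate tests inactive, including activity in the wrong direction.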

The target of one assay is Endoplasmic reticulum aminopeptidase 1 (Homo sapiens) (UniProt Q9NZ08). Nature of the assay: ERAP1 aminopeptidase activity change, dose response, biochemical, fluorescence, cherry-pick (AID 743317). As to conditions: ERAP1 enzyme, Leu-AMC fluorescence, 60 min.
Endoplasmic reticulum aminopeptidase 1 (Homo sapiens), sequence (Q9NZ08 whole entry, looked up): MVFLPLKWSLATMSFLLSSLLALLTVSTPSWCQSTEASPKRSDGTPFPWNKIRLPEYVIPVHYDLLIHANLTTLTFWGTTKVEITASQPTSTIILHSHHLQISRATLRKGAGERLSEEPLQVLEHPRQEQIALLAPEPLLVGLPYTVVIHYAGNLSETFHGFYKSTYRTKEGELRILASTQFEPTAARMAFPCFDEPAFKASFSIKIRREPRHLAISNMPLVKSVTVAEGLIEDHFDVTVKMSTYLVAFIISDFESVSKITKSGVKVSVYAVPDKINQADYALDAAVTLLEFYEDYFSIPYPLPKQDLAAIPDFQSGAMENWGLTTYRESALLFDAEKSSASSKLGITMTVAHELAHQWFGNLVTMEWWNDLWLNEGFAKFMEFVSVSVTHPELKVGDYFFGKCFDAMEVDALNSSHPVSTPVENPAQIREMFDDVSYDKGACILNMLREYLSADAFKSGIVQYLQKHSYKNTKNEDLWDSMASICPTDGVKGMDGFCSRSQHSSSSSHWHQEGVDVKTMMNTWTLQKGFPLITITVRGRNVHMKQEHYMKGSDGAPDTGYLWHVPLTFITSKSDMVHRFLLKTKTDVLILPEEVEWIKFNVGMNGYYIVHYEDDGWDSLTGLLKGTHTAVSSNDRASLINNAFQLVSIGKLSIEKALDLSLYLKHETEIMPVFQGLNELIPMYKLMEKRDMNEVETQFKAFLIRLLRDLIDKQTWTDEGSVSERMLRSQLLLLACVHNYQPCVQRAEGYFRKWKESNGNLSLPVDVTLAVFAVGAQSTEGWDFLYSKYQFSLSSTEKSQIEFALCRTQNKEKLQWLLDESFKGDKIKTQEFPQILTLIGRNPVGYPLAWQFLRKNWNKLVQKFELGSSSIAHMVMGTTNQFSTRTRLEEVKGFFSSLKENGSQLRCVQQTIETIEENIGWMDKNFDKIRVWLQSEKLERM
For the compound `C[C@@H]1CCCCO[C@@H](CN(C)C)[C@H](C)CN([C@@H](C)CO)C(=O)c2cc(NC(=O)Nc3ccc(C(F)(F)F)cc3)ccc2O1`, the AC40 is 516 nM.
As for `C[C@@H]1CCCCO[C@@H](CN(C)Cc2ccc3c(c2)OCO3)[C@@H](C)CN([C@H](C)CO)C(=O)c2cc(NS(=O)(=O)c3cccs3)ccc2O1`, the AC40 is under 80 nM.
As to `CCn1cc(CN2CCCC(C(=O)Nc3ccc(-c4nc5ccccc5[nH]4)cc3)C2)c(C)n1` (stereo unspecified), the AC40 was 3500 nM.
As to `C[C@H](CO)N1C[C@H](C)[C@H](CN(C)C)Oc2c(NC(=O)Nc3ccc(C(F)(F)F)cc3)cccc2C1=O`, the AC40 is 935 nM.
On the same count and under the same terms, to `Cc1ccccc1-c1ccc2c(c1)O[C@@H](CN(C)Cc1ccc(C(=O)O)cc1)[C@@H](C)CN([C@@H](C)CO)S2(=O)=O` belongs 1240 nM.

The same assay, now with this note: ERAP1 enzyme, Leu-AMC fluorescence, 60 min; at 11 µM (top of the series).
As to `Cc1cc(N(C)Cc2ccccc2)nc2cc(O)ccc12`, the activity increase (activation) is -54% (inactive).

The record behind these values is PubChem BioAssay AID743317 (Broad Institute, 2014).
